Data from patent US10150748B2, “Salt or abexinostat, associated crystalline form, a process for their preparation and pharmaceutical compositions containing them” (Pharmacyclics LLC, priority 2013, dated 2018).

Assay: Hygroscopicity by dynamic vapor sorption (DVS)
Assay type: physicochemical
Settings: relative humidities from 0% to 90% at 25° C.
Protocol: Hygroscopicity of form I of abexinostat tosylate was assessed using dynamic vapor sorption (DVS) technique. 5 to 10 mg of the drug substance test sample were accurately weighed into a DVS sample pan working at 25° C. under controlled humidity. The mass variation was recorded whilst drying under 0 percent RH (relative humidity) and during two subsequent cycles of increasing and decreasing linear variations of relative humidity in the range 0-90 percent RH at a rate of 10 percent per hour. The relative humidity was maintained constant when it reached either 0 or 90 percent RH until the mass variation was less than 0.002 percent, per minute within a limit of time of 15 h.

increase in weight detected by DVS analysis: lower than 0.5%
Compound: CN(C)Cc1c(C(=O)NCCOc2ccc(C(=O)NO)cc2)oc2ccccc12.Cc1ccc(S(=O)(=O)O)cc1 [form I of abexinostat tosylate, N-hydroxy-4-{2-[3-(N,N-dimethylaminomethyl)benzofuran-2-ylcarbonylamino]ethoxy}benzamide tosylate]
